IC50 data for 19 molecules are collected here from US10550110B2, “Tetrahydroquinoline sulfonamide derivatives as inverse agonists of retinoid-related orphan receptor gamma (ROR gamma (t))” (GALDERMA RESEARCH & DEVELOPMENT, priority 2014, dated 2020).

Assay [1] relates to IL-17A secretion by CD4+ cells. Description: IL-17A secretion by CD4+ cells (HTRF). The assay is classed as cell-based. Conditions: human peripheral blood CD4+ cells activated with anti-CD3 and anti-CD28, 4 days incubation, IL-17A by HTRF, read-out: IC50 hCD4/IL17. The protocol:
This model allows measurement of the effect of inhibitors on IL-17A secretion by CD4+ cells. The cells are frozen CD4+ cells (STEMCELL, #70026), isolated from peripheral human blood and activated with anti-CD3 and anti-CD28 antibodies. The amount of IL-17A secreted is measured by the TR-FRET (kit HTRF® Human Interleukin 17A (Cisbio, #64H17PEC)) technology.
The cells are rapidly thawed, resuspended in their culture medium (RPMI inactivated 10% FCS) supplemented with soluble anti-CD28 antibodies and seeded (100 000 cells/well) in 96-well plates precoated with anti-CD3 antibodies. The cells are then treated with the ranges of inhibitors to be tested (from 1000 nM to 0.05 nM, 0.1% DMSO). After 4 days of incubation, the HTRF signal is measured using a microplate reader (λexcitation=337 nm, λemission=620/665 nm). The ratios obtained (665/620) are normalized relative to the positive control (cells activated with anti-CD3 and anti-CD28, 0.1% DMSO). The IC50 values are calculated from a 4-parameter logistic model using the XLFit software (IDBS).
Background: Time-resolved FRET reads energy transfer from a long-lived donor to a nearby acceptor.

For assay [2], the target named is T1, ROR gamma ligand-binding domain (LBD) (hRORg) (Homo sapiens, UniProt P51449).
T1 construct: expressed in transfected cells; host or cells: HG5LN (HeLa line with GAL4-responsive luciferase reporter)
T1 sequence (P51449 269-508 limits assumed): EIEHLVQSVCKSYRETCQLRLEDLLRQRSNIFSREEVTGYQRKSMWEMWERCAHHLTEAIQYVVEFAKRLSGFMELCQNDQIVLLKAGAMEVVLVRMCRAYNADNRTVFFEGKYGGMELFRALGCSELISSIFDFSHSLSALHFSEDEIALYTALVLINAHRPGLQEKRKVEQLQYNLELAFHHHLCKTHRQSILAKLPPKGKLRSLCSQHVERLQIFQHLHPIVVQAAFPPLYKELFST
Description: GAL4-RORγ transactivation (luciferase reporter, HG5LN HeLa line). To be noted: HG5LN HeLa line with GAL4 DBD fused to ROR gamma LBD, 18 hours incubation. The format is cell-based. An excerpt:
GAL4—RORγ Transactivation
The RORγ transactivation model was developed from the line HG5LN, which is a HeLa line that stably expresses a luciferase reporter gene controlled by a pentamer of the GAL4 recognition domain of yeast and of a β-globin promoter. The HG5LN line was stably transfected by the DNA-binding domain (DBD) of GAL4 fused to the ROR gamma ligand-binding domain (LBD). Molecules that inhibit the ROR gamma constitutive activity reduce the luciferase expression, thus leading to a reduction in the emitted luminescence.
The cells are seeded in 384-well plates (5000 cells in 45 μL/well of culture medium containing 10% fetal calf serum) and incubated for 4 hours at 37° C., 5% CO2. 5 μL of the test molecules (compounds described in the tables described above) are then added to each well and the plates are incubated for 18 hours at a temperature of 37° C. under 5% of CO2. 20 μL of luciferase substrate (Promega) are added to each well and the luminescence emitted is read by a microplate reader.
The luminescence units (“RLU”) are normalized by positive controls (“POS” containing a saturated concentration of N-(2,2,2-trifluoroethyl)-N-[4-[2,2,2-trifluoro-1-hydroxy-1-(trifluoromethyl)ethyl]phenyl])benzenesulfonamide and negative controls (“NEG” containing DMSO): % inhibition=((RLU-NEG)*100)/(POS-NEG). The IC50 values are calculated from a 4-parameter logistic model using the XLFit software (IDBS).
A general note: A reporter such as luciferase makes a cellular process visible.

Read-outs that look alike come from different tables or passages of the source.

Consider `CCc1ccc(N(CC(C)C)S(=O)(=O)c2ccc3c(c2)C(O)CCN3C[C@H]2[C@@H]3COC[C@@H]32)cc1` (stereo partly drawn) [Compound 37, 4-hydroxy-1-[(1S,5R,6S)-1-(3-oxabicyclo[3.1.0]hex-6-yl)methyl]-1,2,3,4-tetrahydroquinoline-6-sulfonic acid (4-ethylphenyl)isobutylamide], for which the IC50 in assay [1] (96 h) and in assay [2] was less than 100 nM throughout.
With `CCc1ccc(N(CC(C)C)S(=O)(=O)c2ccc3c(c2)C(O)CCN3CC2CCOCC2)cc1` (single isomer, unassigned) [Enantiomer 2, 4-hydroxy-1-(tetrahydropyran-4-ylmethyl)-1,2,3,4-tetrahydroquinoline-6-sulfonic acid (4-ethylphenyl)isobutylamide], the IC50 in assay [1] (96 h) is less than 100 nM; in assay [2] it was 100 to 1000 nM.
Consider `CCc1ccc(N(CC(C)C)S(=O)(=O)c2ccc3c(c2)C(O)CCN3CC2CCOCC2)cc1` (racemic) [Compound 2, 4-hydroxy-1-(tetrahydropyran-4-ylmethyl)-1,2,3,4-tetrahydroquinoline-6-sulfonic acid (4-ethylphenyl)isobutylamide], for which the results for the IC50 in assay [1] (96 h) and in assay [2] were 100 to 1000 nM and less than 100 nM, respectively.
For `CCc1ccc(N(CC(C)C)S(=O)(=O)c2ccc3c(c2)C(O)CCN3CC2CC(O)C2)cc1` (mixture of isomers) [Compound 20, 4-hydroxy-1-(3-hydroxycyclobutylmethyl)-1,2,3,4-tetrahydroquinoline-6-sulfonic acid (4-ethylphenyl)isobutylamide], the figures for the IC50 in assay [1] (96 h) and in assay [2] were less than 100 nM and 100 to 1000 nM, respectively.
For `CCc1ccc(N(CC(C)C)S(=O)(=O)c2ccc3c(c2)C(O)CCN3CC2(C)CCOCC2)cc1` (centres unmarked) [Compound 14, 1-(4-methyltetrahydropyran-4-ylmethyl)-4-hydroxy-1,2,3,4-tetrahydroquinoline-6-sulfonic acid (4-ethylphenyl)isobutylamide] the same measures were less than 100 nM and less than 100 nM.
`CCc1ccc(N(CC(C)C)S(=O)(=O)c2ccc3c(c2)C(O)CCN3CC2CCOCC2)cc1` (single isomer, unassigned) [Enantiomer 1, 4-hydroxy-1-(tetrahydropyran-4-ylmethyl)-1,2,3,4-tetrahydroquinoline-6-sulfonic acid (4-ethylphenyl)isobutylamide]: the IC50 in assay [1] and in assay [2] was less than 100 nM throughout.
On to `CCc1ccc(N(CC(C)C)S(=O)(=O)c2ccc3c(c2)C(O)CCN3CC2CN(C(=O)OC)C2)cc1` (centres unmarked) [Compound 46, methyl ester of 3-{6-[(4-ethylphenyl)isobutylsulfamoyl]-4-hydroxy-3,4-dihydro-2H-quinolin-1-ylmethyl}azetidine-1-carboxylic acid], for which the IC50 in assay [1] (96 h) and in assay [2] was 100 to 1000 nM each time.
With `CCc1ccc(N(CC(C)C)S(=O)(=O)c2ccc3c(c2)C(O)CCN3CC2(C)COC2)cc1` (centres unmarked) [Compound 19, 4-hydroxy-1-(3-methyloxetan-3-ylmethyl)-1,2,3,4-tetrahydroquinoline-6-sulfonic acid (4-ethylphenyl)isobutylamide], the IC50 in assay [1] (96 h) is less than 100 nM; in assay [2] it was 100 to 1000 nM.
Consider `CCc1ccc(N(CC(C)C)S(=O)(=O)c2ccc3c(c2)C(O)CCN3CC2(F)CCOCC2)cc1` (centres unmarked) [Compound 15, 1-(4-fluorotetrahydropyran-4-ylmethyl)-4-hydroxy-1,2,3,4-tetrahydroquinoline-6-sulfonic acid (4-ethylphenyl)isobutylamide], for which the figures for the IC50 in assay [1] (96 h) and in assay [2] were less than 100 nM and 100 to 1000 nM, respectively.
Turning to `CCc1ccc(N(CC(C)C)S(=O)(=O)c2ccc3c(c2)C(=O)CCN3CC2CCOCC2)cc1` [Compound 1, 4-oxo-1-(tetrahydropyran-4-ylmethyl)-1,2,3,4-tetrahydroquinoline-6-sulfonic acid (4-ethylphenyl)isobutylamide], the IC50 in assay [1] (96 h) and in assay [2] was 100 to 1000 nM each time.
For the molecule `CCc1ccc(N(CC(C)C)S(=O)(=O)c2ccc3c(c2)C(O)CCN3Cc2ccncc2)cc1` (centres unmarked) [Compound 10, 4-hydroxy-1-pyridin-4-ylmethyl-1,2,3,4-tetrahydroquinoline-6-sulfonic acid (4-ethylphenyl)isobutylamide], the IC50 in assay [1] (96 h) and in assay [2] was less than 100 nM in each case.
Regarding `CCc1ccc(N(CC(C)C)S(=O)(=O)c2ccc3c(c2)C(O)CCN3Cc2ccnc(F)c2)cc1` (centres unmarked) [Compound 11, 1-(2-fluoropyridin-4-ylmethyl)-4-hydroxy-1,2,3,4-tetrahydroquinoline-6-sulfonic acid (4-ethylphenyl)isobutylamide], the IC50 in assay [1] (96 h) and in assay [2] was less than 100 nM each time.
In the case of `CCc1ccc(N(CC(C)C)S(=O)(=O)c2ccc3c(c2)C(O)CCN3Cc2cn[nH]c2)cc1` (centres unmarked) [Compound 45, 4-hydroxy-1-(1H-pyrazol-4-ylmethyl)-1,2,3,4-tetrahydroquinoline-6-sulfonic acid (4-ethylphenyl)isobutylamide], the IC50 was less than 100 nM in assay [1] (96 h) and 100 to 1000 nM in assay [2].
For `CCc1ccc(N(CC(C)C)S(=O)(=O)c2ccc3c(c2)C(O)CCN3Cc2ccnnc2)cc1` (centres unmarked) [Compound 29, 4-hydroxy-1-pyridazin-4-ylmethyl-1,2,3,4-tetrahydroquinoline-6-sulfonic acid (4-ethylphenyl)isobutylamide] the same measures were less than 100 nM and less than 100 nM.
Turning to `CCc1ccc(N(CC(C)C)S(=O)(=O)c2ccc3c(c2)C(=O)CCN3Cc2ccncc2)cc1` [Compound 4, 4-oxo-1-pyridin-4-ylmethyl-1,2,3,4-tetrahydroquinoline-6-sulfonic acid (4-ethylphenyl)isobutylamide], the IC50 in assay [1] (96 h) and in assay [2] was less than 100 nM in each case.
`CCc1ccc(N(CC(C)C)S(=O)(=O)c2ccc3c(c2)C(O)CCN3CC2CCNC(=O)C2)cc1` (centres unmarked) [Compound 25, 4-hydroxy-1-(2-oxopiperidin-4-ylmethyl)-1,2,3,4-tetrahydroquinoline-6-sulfonic acid (4-ethylphenyl)isobutylamide]: the IC50 in assay [2] is more than 1000 nM.
As to `CCc1ccc(N(CC(C)C)S(=O)(=O)c2ccc3c(c2)C(O)CCN3CC2CCC(O)CC2)cc1` (single isomer, unassigned) [Compound 43, 4-hydroxy-1-(4-hydroxycyclohexylmethyl)-1,2,3,4-tetrahydroquinoline-6-sulfonic acid (4-ethylphenyl)isobutylamide], the IC50 in assay [2] lay within 100 to 1000 nM.
For `Cc1cc(C)c(N(CC(C)C)S(=O)(=O)c2ccc3c(c2)C(O)CCN3CC2CCOCC2)cn1` (centres unmarked) [Compound 66, 4-hydroxy-1-(tetrahydropyran-4-ylmethyl)-1,2,3,4-tetrahydroquinoline-6-sulfonic acid (4,6-dimethylpyridin-3-yl)isobutylamide], the IC50 in assay [1] (96 h) and in assay [2] was more than 1000 nM throughout.
Turning to `CCc1ccc(N(CC(C)C)S(=O)(=O)c2ccc3c(c2)C(O)CCN3C2CCNC(=O)C2)cc1` (single isomer, unassigned) [Compound 53, 4-hydroxy-1-(2-oxopiperidin-4-yl)-1,2,3,4-tetrahydroquinoline-6-sulfonic acid (4-ethylphenyl)isobutylamide], the IC50 in assay [2] is more than 1000 nM.
